# Measured values taken from publication PMC13267113 (npj Drug Discovery, 2025).
# Read-outs that look alike come from different tables or passages of the source.
# Assays:
# [1] = test system: CHO-K1 cells; assay: Micronucleus test; conditions: 24 h; mitomycin C 0.05 µM, doxorubicin 0.05 µM, etoposide 0.25 µM; CYS 20 µM, 100 µM for Cysto-180
# [2] = test system: E. coli gyrase; conditions: cited from earlier work
# [3] = test system: Huh-7.5 (human, liver); assay: MTT cytotoxicity Huh-7.5; type: cell-based; conditions: Huh7.5, 72 h, n = 3
# Protocol: (§1) All cell types were cultivated at 37 °C with 5% CO2. HepG2, HEK293, HCT116, CHO-K1, HeLa-CCL-2 and Huh-7.5 were purchased from ATCC. The respective cell media (Gibco) were supplemented with 10% FBS (Gibco) before usage. Cells were used between passages #5 and #30. To obtain biological repeats, cells were split separately for at least two passages.
# (§2) Cells were washed with PBS and 0.5 mL trypsin was added. Afterwards, cells were incubated for 5 min before adding 10 mL medium containing 10% FBS. Per well, 120 µL cell suspension (5 × 10^4 cells/mL) was seeded in transparent 96-well cell bind plates and incubated for 2 h (37 °C, 5% CO2). A dilution series (1:3) of test compounds was prepared in respective media containing 10% FBS and added (60 µL) to the prepared cell plate. Cells were incubated for a further 72 h (37 °C, 5% CO2). Next, 20 µL MTT (5 mg/mL in PBS) was added to each well and incubated for 2 h (37 °C, 5% CO2). The wells were emptied and 100 µL isopropanol/10 N HCl (1000:4) per well was added.
# (§3) The plates were analyzed by measuring the absorbance at 570 nm (plate reader Infinite® 200 Pro, Tecan). After normalization of data to the respective solvent controls, the calculated percentage of growth inhibition was plotted using GraphPad Prism software (version 10.0.2).
# [4] = Metabolic stability in mouse hepatocytes; type: in vitro ADME; conditions: mouse, pooled mouse hepatocytes; 1 μM, 0.25 × 10^6 cells/mL; read-out: Mouse Hepatocytes t1/2
# Protocol: For the evaluation of combined phase I and phase II metabolic stability, the compound (1 μM) was incubated with 0.25 × 10^6 cells/mL of pooled mouse hepatocytes (Xenotech, Kansas City, USA). Cells were thawed in Leibovitz’s L-15 medium without phenol red (ThermoFisher Scientific, Waltham, USA). Briefly, cells were transferred into 50 mL of medium, followed by centrifugation at 55 g for 6 min. Supernatant was discarded, and the cell count was determined after gently resuspending the cell pellet in 1mL of medium. Hepatocytes were diluted to 0.5 × 10^6 cells/mL and incubated at 37 °C, 700 rpm for 10 min, to achieve the desired final cell count after addition of an equal volume of test compounds in medium, leading to a final test concentration of 1 µM at 1% DMSO. […] For the determination of metabolism in the presence of cobicistat, this drug was added together with test compounds in the desired concentration range. The metabolic stability of testosterone, verapamil, ketoconazole and 7-hydroxycoumarine were determined in parallel to confirm the enzymatic activity of mouse hepatocytes. […] Concentration of the remaining test compound at the different time points was analyzed by HPLC-MS/MS (Vanquish Flex coupled to a TSQ Altis Plus, Thermo Fisher, Dreieich, Germany) and used to determine half-life (t1/2). Intrinsic clearance was calculated as follows:2 CLintµL/min×10^6cells=Incubation volumeµL×ln(2)/Cells in incubation mixture[10^6]×t1/2
# For metabolite identification studies, test compounds were incubated at 10 µM final concentration and samples were analyzed using HPLC-HRMS (Ultimate 3000 coupled to a Q Exactive Focus, Thermo Fisher, Dreieich, Germany). […] Blank samples using DMSO were run in parallel for background subtraction. Sample processing for metabolite identification was performed using Compound Discoverer 3.2 (Thermo Fisher, Dreieich, Germany). Metabolites were identified based on mass shifts and feasibility of the metabolic reaction, also in view of MS peak intensities over time.
# [5] = test system: HeLa (human, cervix); assay: MTT cytotoxicity HeLa; type: cell-based; conditions: 72 h, n = 3
# Protocol: as §1, §2, §3
# [6] = test system: U-2 OS cells; assay: Mitochondrial superoxide formation (MitoSOX Red); type: cell-based, human; conditions: n = 6
# Protocol: CYS was tested for its potential to induce oxidative stress in U-2 OS cells. Therefore, 120 µL of a cell suspension in McCoy’s (+10% FBS) containing 5 × 10^4 cells/mL were seeded into black 96-well imaging plate (BD Falcon). The plates were incubated for two days (37 °C, 5% CO2) until the cells reached approximately 70% confluence. Subsequently, the cells were washed with HBSS buffer, prior to adding CYS (20 µM) and the ROS inducer menadione (50 µM) as positive control, along with the staining solution (HBSS, calcium, magnesium, 5 µM MitoSOX red and 10 µg/mL Hoechst (Thermo)). To check for ROS protective properties, menadione (50 µM) was added directly to the staining solution. […] Afterwards, the cells were washed twice with HBSS. The cells were imaged using an automated fluorescence microscope (Celldiscoverer 7, Zeiss) (excitation: […]) to analyze the fluorescence intensity of the superoxide tracker MitoSOX red. The experiment was carried out with six replicates per condition. Quantification was done by high-content image analysis using the ZEN software (version 3.4, blue edition, Zeiss). Data presentation was done using GraphPad Prism (version 10.0.3) with ordinary one-way ANOVA including multiple comparisons to the control group for statistical analysis of the sample without ROS induction via menadione in the staining solution. Multiple unpaired t test was used to compare samples for ROS protective properties, which were incubated with menadione in the staining solution.
# [7] = test system: HEK293 (human, kidney); assay: MTT cytotoxicity HEK293; type: cell-based
# Protocol: as §1, §2, §3
# [8] = test system: HepG2 (human, liver); assay: MTT cytotoxicity HepG2; type: cell-based; conditions: 72 h, n = 3
# Protocol: as §1, §2, §3
# [9] = test system: U2OS (human, osteosarcoma); assay: MTT cytotoxicity U2OS; type: cell-based; conditions: 72 h, n = 3
# Protocol: as §2, §3
# [10] = test system: HCT116 (human, colon); assay: MTT cytotoxicity HCT116; type: cell-based; conditions: HCT-116, 72 h, n = 3
# Protocol: as §1, §2, §3
# [11] = test system: CHO-K1 (hamster, ovary); assay: MTT cytotoxicity CHO-K1; type: cell-based; conditions: CHO-K1, 72 h, n = 3
# Protocol: as §1, §2, §3
# [12] = test system: zebrafish embryos; assay: In vivo cardiotoxicity in zebrafish embryos; conditions: treated 2 to 3 dpf; CYS 20 µM; terfenadine 10, 20 µM
# Protocol: (§4) Handling of adult zebrafish and experiments with zebrafish embryos were performed in accordance with the EU directive 2010/63/EU and the German Animal Welfare Act (§11 Abs. 1 TierSchG). An automatic aquatic eco-system (PENTAIR, Apoka, UK) was used for zebrafish housing. Adult zebrafish were mated pairwise in our zebrafish facility after one night in the mating cages (light/dark cycle: 14 h/10 h). The eggs were collected after 2 h of mating and placed in a petri dish with fish water (pH 7.36 ± 0.08, conductivity: 800 ± 50 µs). The eggs were washed with 0.3x Danieau´s medium (17 mM NaCl, 0.2 mM KCl, 0.12 mM MgSO4, 0.18 mM Ca(NO3)2, 1.5 mM HEPES, pH 7.1–7.3, and 1.2 µM methylene blue). 300 eggs were placed per Petri dish and stored in the incubator at 28 °C overnight. 24 h post-mating, the unfertilized eggs were discarded. The 0.3x Danieau´s media in the petri dishes was replaced every 24 h and embryos with developmental issues were euthanized using ice water. […]
# Embryos were prepared as described above. […] Afterwards, embryos were anesthetized with tricaine added to the media (40 µg/mL, 0.004% (w/v)) and videos were recorded using a stereomicroscope (1.25 × magnification) (Stemi 508, Zeiss) with Media Recorder (version 4.0) and analyzed via DanioScope software (version 1.2.208, Noldus). […]
# [13] = test system: CHO-K1 cells
# [14] = test system: zebrafish embryos [Tg(fabp10a:DsRed; elaA:EGFP)]; assay: In vivo hepatotoxicity in zebrafish embryos; conditions: soaking 3 to 5 dpf; valproic acid 20, 40 µg/mL
# Protocol: as §4, with “overnight.” for “overnight. 24 h post-mating, the unfertilized eggs were discarded. The 0.3x Danieau´s media in the petri dishes was replaced every 24 h and embryos with developmental issues were euthanized using ice water.”
# Zebrafish embryos [Tg(fabp10a:DsRed; elaA:EGFP)] were prepared as described above. […] After 48 h treatment, the embryos were checked via a fluorescence stereomicroscope (M205 FA, Leica) with attention to liver degeneration. Fluorescence images were taken after anesthetizing the embryos with tricaine (40 µg/mL) and placing them laterally (excitation: 558 nm, emission 583 nm, 35× magnification). […] The liver size was calculated using ImageJ software (format: 8 bit, threshold: 40–255, binary, particle size: 10.0-infinite). […] The relative liver sizes of treated embryos were calculated accordingly and normalized to the control group. […]
compound,measurement,setting,value
CO[C@@]12[C@H](COC(N)=O)C3=C(C(=O)C(C)=C(N)C3=O)N1C[C@@H]1N[C@@H]12 [mitomycin C],micronuclei/nuclear bud formation,[1],high amount of nuclear bud/micronuclei formation
CC(C)Oc1c(NC(=O)c2ccc(NC(=O)[C@H](CC(N)=O)NC(=O)c3ccc(NC(=O)c4ccc(C#N)cc4)cc3)cc2)ccc(C(=O)Nc2ccc(C(=O)O)cc2)c1O [CN-DM-861],IC50,[2],[…]
same,IC50,[3],> 20000 nM
same,half-life at 1 µM,[4],1.57 ± 0.25 h
same,IC50,[5],> 37000 nM
same,basal superoxide radical levels vs DMSO control,"[6]; 20 µM, MitoSOX Red, no menadione",no ROS induction at the maximum soluble concentration
same,menadione-induced superoxide formation on co-treatment,[6]; CYS 20 µM + menadione 50 µM,no significant increase of superoxide
same,IC50,"[7]; HEK293, 72 h, read-out: IC50 HEK293 (human, kidney)",> 20000 nM
same,IC50,[8],> 20000 nM
same,IC50,[9],> 20000 nM
same,IC50,[10],> 20000 nM
same,IC50,[11],> 20000 nM
CC(C)(C)c1ccc(C(O)CCCN2CCC(C(O)(c3ccccc3)c3ccccc3)CC2)cc1 (centres unmarked) [terfenadine],heartbeat rate,[12],significant and concentration-dependent decrease of beats per minute
same,pericardial area,[12],"significant, concentration-dependent increase in pericardial area"
"COc1cccc2c1C(=O)c1c(O)c3c(c(O)c1C2=O)C[C@@](O)(C(=O)CO)C[C@@H]3O[C@H]1C[C@H](N)[C@H](O)[C@H](C)O1 [Doxorubicin, doxorubicin, reference compound]",micronuclei/nuclear bud formation,[13],high amount of nuclear bud/micronuclei formation
same,IC50,"[7]; HEK293, MTT, 72 h, n = 3, read-out: IC50 HEK293 (human, kidney)",160 ± 40 nM
same,IC50,[8],480 ± 130 nM
same,IC50,[10],240 ± 20 nM
same,IC50,[11],100 ± 10 nM
"CCCC(CCC)C(=O)O [Valproic acid, valproic acid]",liver size,[14],significant liver size reduction
